Article PMC6658998, “Pharmacological characterization of the seven human NOX isoforms and their inhibitors” (Redox Biology, 2019)

How the values were obtained:
[1] = Cell-free Amplex Red/HRP assay with 10 μM H2O2 (H2O2 scavenging / HRP inhibition); conditions: 10 μM H2O2, Amplex Red/HRP, read-out: Scavenging effect IC50 AR H2O2
Experimental: (§2) This assay allows to detect H2O2 scavengers as well as HRP inhibitors. (iii) Another assay for determining antioxidant activity analyzes serial dilutions of compounds in the presence of free radical DPPH in methanol in transparent 96-well plates (200 μl/well). Absorbance was measured at 540 nm after 15 min incubation in the dark. All scavenging assays were performed with FlexStation 3 Multi-Mode Microplate Reader (Molecular Devices).

[2] = target: T1, NOX3 (Homo sapiens, UniProt Q9HBY0); assay: WST-1 O2•- detection in tetracycline-induced NOX3 HEK293 T-REx cells; type: cell-based
T1 sequence (Q9HBY0 1-568): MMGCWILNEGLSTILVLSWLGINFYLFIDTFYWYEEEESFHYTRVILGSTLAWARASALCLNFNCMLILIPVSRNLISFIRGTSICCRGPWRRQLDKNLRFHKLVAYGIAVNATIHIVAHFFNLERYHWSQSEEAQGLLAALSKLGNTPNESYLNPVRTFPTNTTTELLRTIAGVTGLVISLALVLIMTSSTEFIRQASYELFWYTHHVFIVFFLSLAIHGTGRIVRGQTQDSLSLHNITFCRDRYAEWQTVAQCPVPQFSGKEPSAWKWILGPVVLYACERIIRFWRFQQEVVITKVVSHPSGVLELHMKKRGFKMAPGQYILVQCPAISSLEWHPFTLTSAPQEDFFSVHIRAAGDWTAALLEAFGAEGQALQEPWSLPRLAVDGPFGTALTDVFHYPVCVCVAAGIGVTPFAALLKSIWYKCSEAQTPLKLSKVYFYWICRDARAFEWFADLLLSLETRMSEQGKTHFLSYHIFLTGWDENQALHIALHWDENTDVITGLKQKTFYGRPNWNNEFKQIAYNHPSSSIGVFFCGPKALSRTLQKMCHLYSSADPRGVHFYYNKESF
T1 sequence (P13498 1-195 partner): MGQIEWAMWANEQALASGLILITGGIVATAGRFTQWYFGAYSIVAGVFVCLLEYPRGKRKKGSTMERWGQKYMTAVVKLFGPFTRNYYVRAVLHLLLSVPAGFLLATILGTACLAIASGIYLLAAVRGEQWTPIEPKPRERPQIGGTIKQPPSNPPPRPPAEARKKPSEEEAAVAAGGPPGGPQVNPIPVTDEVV
T1 sequence (Q8NFA2 1-376 partner): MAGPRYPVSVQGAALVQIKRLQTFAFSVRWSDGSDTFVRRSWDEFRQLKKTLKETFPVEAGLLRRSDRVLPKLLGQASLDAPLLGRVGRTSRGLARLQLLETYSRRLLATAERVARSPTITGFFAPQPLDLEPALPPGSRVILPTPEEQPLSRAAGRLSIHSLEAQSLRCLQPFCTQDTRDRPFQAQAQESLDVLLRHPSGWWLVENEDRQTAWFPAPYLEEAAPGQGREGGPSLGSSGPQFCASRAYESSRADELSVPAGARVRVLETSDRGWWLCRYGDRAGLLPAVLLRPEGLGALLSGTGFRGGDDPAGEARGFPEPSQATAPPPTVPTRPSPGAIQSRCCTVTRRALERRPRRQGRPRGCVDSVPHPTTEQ
Source text: (§1) Compounds were dispensed prior addition of cells.

[3] = DPPH free radical scavenging assay (absorbance); conditions: cell-free, DPPH in methanol, 15 min; read-out: Scavenging effect IC50 Absorbance DPPH
Experimental: as §2

[4] = target: T2, NOX2 (Homo sapiens, UniProt P04839); assay: Amplex Red/HRP H2O2 detection in differentiated PLB-985 cells (NOX2)
T2 sequence (P04839 2-570 limits assumed): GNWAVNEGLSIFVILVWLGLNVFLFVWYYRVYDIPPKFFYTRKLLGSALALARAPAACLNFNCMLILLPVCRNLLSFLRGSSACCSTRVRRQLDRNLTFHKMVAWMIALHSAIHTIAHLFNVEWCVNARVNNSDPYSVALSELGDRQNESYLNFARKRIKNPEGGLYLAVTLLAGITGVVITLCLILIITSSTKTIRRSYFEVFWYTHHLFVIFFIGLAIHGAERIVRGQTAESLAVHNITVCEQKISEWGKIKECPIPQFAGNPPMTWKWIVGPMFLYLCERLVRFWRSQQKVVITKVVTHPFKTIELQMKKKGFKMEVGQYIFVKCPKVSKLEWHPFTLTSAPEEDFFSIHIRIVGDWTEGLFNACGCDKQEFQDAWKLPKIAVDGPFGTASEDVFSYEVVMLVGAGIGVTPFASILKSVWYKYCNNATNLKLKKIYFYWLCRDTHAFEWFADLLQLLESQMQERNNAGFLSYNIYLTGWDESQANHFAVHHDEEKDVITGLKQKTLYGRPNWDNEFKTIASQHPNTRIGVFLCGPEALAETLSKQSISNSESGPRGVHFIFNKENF
T2 sequence (P13498 1-195 partner): T1 sequence (P13498 1-195 partner)

[5] = target: T1, NOX3; assay: Amplex Red/HRP H2O2 detection in tetracycline-induced NOX3 HEK293 T-REx cells; type: cell-based
Source text: as §1

[6] = target: T2, NOX2; assay: WST-1 O2•- detection in differentiated PLB-985 cells (NOX2)
[7] = target: T2, NOX2; assay: NOX2-dependent oxygen consumption in PMA-activated human neutrophils (Seahorse); type: cell-based; conditions: 100 nM PMA
Experimental: Human polymorphonuclear leukocytes (PMN) were isolated from fresh whole blood collected from healthy volunteers as described. Briefly, 32 mL blood was collected in 8 mL sodium citrate (3.8%) and blood cells sedimented for 40 min with dextran T500 (4% in NaCl 0.9%). The upper yellowish fraction containing leukocytes was collected and centrifugated at 380×g for 10 min. Pellets were resuspended in PBS and separated using Ficoll Plaque™ Plus (450 ×g , with no brake) for 15 min, RT. Red blood cells were lysed by addition of 5 mL H2O for 30 s followed by addition of 5 mL NaCl 1.8%. Remaining PMN were collected by centrifugation for 10 min at 250 ×g , washed and resuspended in HBSS, counted and kept on ice for a maximum of 30 min until they were used for oxygen consumption measurement.
Oxygen consumption was determined using human neutrophils and NOX4 T-Rex HEK293 cells using the Seahorse XF24 Extracellular Flux Analyzer. Neutrophils were plated in 24-well microplates (250,000 cells/well in 200 μL HBSS) and incubated at room temperature for 15 min for attachment. The medium was changed to DMEM without sodium bicarbonate containing 10 mM Hepes prewarmed to 37 °C, and the cells were incubated for 30 min at 37 °C in a non-CO2 incubator. Basal oxygen consumption was recorded for 8 min followed by addition of compounds and 8 min preincubation. PMA (100 nM) was added where indicated and the oxygen consumption rate was determined for two cycles of 8 min each. The signal obtained from neutrophils without PMA treatment was subtracted as a blank, while the signal obtained from PMA + DMSO-treated neutrophils was considered as 100%.

[8] = WST-1, tetracycline 1 μg/mL 24 h, read-out: IC50 NOX3 (T-REx) WST-1
[9] = Amplex red/HRP, tetracycline 1 μg/mL 24 h, read-out: IC50 NOX3 (T-REx) AR

Row | SMILES | IC50 [1] | IC50 [2, 8] | IC50 [3] | IC50 [4] | IC50 [5, 9] | IC50 [6] | Inhibition of NOX2-dependent oxygen consumption ([7]; compound 50 μM) | Inhibition of NOX2-dependent oxygen consumption ([7]; concentration not given) | Inhibition of NOX2-dependent oxygen consumption ([7]; compound 300 μM) | IC50 [2] | IC50 [5]
1 | COc1cc(C(C)=O)cc(-c2cc(C(C)=O)cc(OC)c2O)c1O [Diapocynin, diapocynin] | 11.5 µM | > 50 µM | > 50 µM | 38.9 µM | > 50 µM | > 50 µM | only weakly | – | – | – | –
2 | O=c1c2ccccc2[se]n1-c1ccccc1 [Ebselen, ebselen] | 3.3 µM | 35 µM | > 50 µM | – | 2.9 µM | – | – | inhibited | – | – | –
3 | COc1cc(C(C)=O)ccc1O [Apocynin, apocynin] | > 50 µM | > 50 µM | > 50 µM | > 50 µM | > 50 µM | > 50 µM | – | – | only weakly | – | –
4 | c1ccc2c(c1)[I+]c1ccccc1-2 [DPI, diphenylene iodonium chloride] | > 50 µM | – | > 50 µM | – | – | – | – | inhibited | – | 0.2 µM | 2.2 µM
5 | Cc1c2c(=O)n(-c3ccccc3Cl)[nH]c2cc(=O)n1Cc1ccccn1 [GKT136901] | 1.9 µM | > 50 µM | 21.7 µM | 12.2 µM | 5.7 µM | > 50 µM | not | – | – | – | –
6 | c1ccc(Cn2nnc3c(Sc4nc5ccccc5o4)ncnc32)cc1 [VAS2870, 3-benzyl-7-(2-benzoxazolyl)thio-1,2,3-triazolo[4,5-d]pyrimidine] | – | > 50 µM | – | – | > 50 µM | – | – | inhibited | – | – | –
